Measurements as given in the supplement of paper PMC10307832.

Key:
Experiment in all cases: relative viability (nuclei count vs DMSO), 5 days (fraction); higher = more cells survive
[1] = compound: CN(c1ncccc1CNc1nc(Nc2ccc3c(c2)CC(=O)N3)ncc1C(F)(F)F)S(C)(=O)=O + CS(=O)(=O)N1CCN(Cc2cc3nc(-c4cccc5[nH]ncc45)nc(N4CCOCC4)c3s2)CC1 [Pictilisib] (partner 1 µM)
Procedure, shortened: (§1)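 Nuclei were stained with Hoechst during a one-step fixation (final 0.05% Triton X-100, 1% formaldehyde, 1 ug/ml Hoechst) carried out 5 days after dosing, then counted on 4× images. The cells, lung cancer lines in 1536-well plates, had been dosed by pin tool the day after seeding with one drug alone or a fixed anchor-drug dose plus five library-drug doses (not always all listed) in √10 steps. Relative viability is the nuclei count in treated wells divided by that in vehicle wells, and each value is the median of duplicate plates.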

[2] = compound: CN(c1ncccc1CNc1nc(Nc2ccc3c(c2)CC(=O)N3)ncc1C(F)(F)F)S(C)(=O)=O + Cc1nc(NC(=O)N2CCC[C@H]2C(N)=O)sc1-c1ccnc(C(C)(C)C(F)(F)F)c1 [Alpelisib] (partner 2 µM)
Procedure, shortened: as §1

[3] = compound: CN(c1ncccc1CNc1nc(Nc2ccc3c(c2)CC(=O)N3)ncc1C(F)(F)F)S(C)(=O)=O + N=C(N)NC(=N)NCCc1ccccc1 [Phenformin] (partner 250 µM)
Procedure, shortened: as §1

[4] = compound: CN(c1ncccc1CNc1nc(Nc2ccc3c(c2)CC(=O)N3)ncc1C(F)(F)F)S(C)(=O)=O + NC(=O)Nc1cc(-c2cccc(F)c2)sc1C(=O)N[C@H]1CCCNC1 [AZD7762] (partner 0.2 µM)
Procedure, shortened: as §1

| Cell Line | relative viability ([1]; first compound 0.01 µM) | relative viability ([1]; first compound 0.03162 µM) | relative viability ([1]; first compound 0.1 µM) | relative viability ([1]; first compound 0.3162 µM) | relative viability ([1]; first compound 1 µM) | relative viability ([2]; first compound 0.01 µM) | relative viability ([2]; first compound 0.03162 µM) | relative viability ([2]; first compound 0.1 µM) | relative viability ([2]; first compound 0.3162 µM) | relative viability ([2]; first compound 1 µM) | relative viability ([3]; first compound 0.01 µM) | relative viability ([3]; first compound 0.03162 µM) | relative viability ([3]; first compound 0.1 µM) | relative viability ([3]; first compound 0.3162 µM) | relative viability ([3]; first compound 1 µM) | relative viability ([4]; first compound 0.01 µM) | relative viability ([4]; first compound 0.03162 µM) | relative viability ([4]; first compound 0.1 µM) | relative viability ([4]; first compound 0.3162 µM) | relative viability ([4]; first compound 1 µM) |
| --- | --- | --- | --- | --- | --- | --- | --- | --- | --- | --- | --- | --- | --- | --- | --- | --- | --- | --- | --- | --- |
| LK-2 | 0.585 | 0.625 | 0.586 | 0.794 | 0.462 | 0.955 | 1.35 | 0.927 | 0.959 | 1.08 | 0.376 | 0.386 | 0.63 | 0.517 | 0.532 | 0.542 | 0.517 | 0.413 | 0.434 | 0.397 |
| LOU-NH91 | 0.519 | 0.548 | 0.504 | 0.551 | 0.575 | 0.75 | 0.792 | 0.703 | 0.771 | 0.762 | 0.704 | 0.776 | 0.726 | 0.716 | 0.792 | 0.793 | 0.754 | 0.735 | 0.746 | 0.79 |
| LU99A | 0.314 | 0.357 | 0.342 | 0.373 | 0.335 | 0.48 | 0.62 | 0.525 | 0.588 | 0.577 | 0.874 | 0.706 | 0.952 | 0.924 | 1.15 | 0.377 | 0.507 | 0.509 | 0.572 | 0.476 |
| LXF-289 | 0.834 | 0.937 | 0.75 | 0.677 | 0.737 | 1.05 | 1.07 | 1.07 | 0.988 | 0.947 | 0.542 | 0.55 | 0.538 | 0.521 | 0.525 | 1.16 | 1.17 | 1.1 | 1.13 | 1.2 |
| NCI-H23 | 0.554 | 0.492 | 0.564 | 0.495 | 0.441 | 0.668 | 0.84 | 0.727 | 0.692 | 0.56 | 0.856 | 0.835 | 0.864 | 0.787 | 0.734 | 0.245 | 0.276 | 0.243 | 0.289 | 0.382 |
| NCI-H322M | 0.495 | 0.48 | – | 0.593 | 0.553 | 0.821 | 0.79 | – | 0.902 | 0.96 | 0.88 | 0.828 | 0.827 | 0.89 | 0.875 | 0.584 | 0.556 | 0.62 | 0.663 | 0.813 |
| NCI-H358 | 0.276 | 0.351 | 0.275 | 0.347 | 0.243 | 1.03 | 0.824 | 0.737 | 0.753 | 0.669 | 0.336 | 0.338 | 0.317 | 0.317 | 0.202 | 0.552 | 0.553 | 0.381 | 0.533 | 0.339 |
| NCI-H441 | 0.554 | 0.516 | 0.527 | 0.527 | 0.508 | 0.624 | 0.65 | 0.557 | 0.793 | 0.614 | 0.926 | 0.859 | 0.805 | 0.864 | 0.787 | 1.07 | 1.11 | 1.04 | 1.18 | 1.22 |
| NCI-H460 | 0.338 | 0.425 | 0.437 | 0.367 | 0.418 | 0.519 | 0.577 | 0.487 | 0.443 | 0.508 | 0.599 | 0.75 | 0.499 | 0.484 | 0.495 | 0.714 | 0.824 | 0.643 | 0.661 | 0.684 |
| NCI-H596 | 0.409 | 0.37 | 0.428 | 0.456 | 0.37 | 0.58 | 0.48 | 0.482 | 0.48 | 0.392 | 0.807 | 0.745 | 0.657 | 0.611 | 0.763 | 0.999 | 1.1 | 0.948 | 1.05 | 1.05 |
| NCI-H647 | 0.529 | 0.365 | 0.38 | – | 0.594 | 1.09 | 0.919 | 1.14 | 1.02 | 1.17 | 0.483 | 0.689 | 0.616 | 0.579 | 0.401 | 0.383 | 0.515 | 0.611 | 0.566 | 0.471 |
| NCI-H650 | 0.961 | 1.15 | 0.671 | 0.639 | 0.842 | 1.01 | 1.23 | 0.945 | 0.832 | 0.725 | 0.492 | 0.464 | 0.396 | 0.393 | 0.441 | 0.909 | 1.08 | 0.822 | 0.948 | 0.995 |
| NCI-H727 | 0.459 | 0.269 | 0.393 | 0.31 | 0.344 | 0.638 | 0.606 | 0.565 | 0.448 | 0.444 | 0.626 | 0.655 | 0.389 | 0.616 | 0.444 | 0.595 | 0.555 | 0.447 | 0.842 | 0.69 |
| NCI-H838 | 0.431 | 0.482 | 0.471 | 0.448 | 0.395 | 0.961 | 1.17 | 1.01 | 0.862 | 0.705 | 0.604 | 0.671 | 0.575 | 0.504 | 0.396 | 0.994 | 0.955 | 0.964 | 0.861 | 0.933 |
| NCI-H1355 | 0.399 | 0.474 | 0.346 | 0.432 | 0.381 | 0.882 | 0.945 | 0.797 | 0.801 | 0.696 | 0.45 | 0.442 | 0.449 | 0.406 | 0.432 | 0.866 | 0.864 | 0.944 | 0.732 | 0.697 |
| NCI-H1395 | 0.569 | 0.655 | 0.605 | 0.668 | 0.661 | 0.996 | 1.08 | 0.997 | 1.06 | 1.06 | 0.455 | 0.463 | 0.459 | 0.454 | 0.417 | 0.41 | 0.368 | 0.421 | 0.398 | 0.424 |
